Read-outs that look alike come from different tables or passages of the source.
Tested on: Bordetella pertussis
Assay: microbe, parasite or virus in culture
Type: cell-based
Experimental: Cells were harvested by centrifugation, washed twice with NaCl 0.9% (w/v), and resuspended in fresh medium (de novo minimal CDM; see composition in Table 1) at a theoretical OD650 nm of 0.5, as calculated from the OD650 nm of the culture before harvest. 20 μl of this cell suspension were used to inoculate each well of a 96-well microtiter plate filled with 180 μl of de novo minimal CDM. Only the inner wells of the plate were used for cultures, in order to minimize evaporation, and two controls were included, in which the supplement solution was replaced with water.
The plate was then incubated for 7 days at 35° C. in a Biotek Synergy H1 reader with constant shaking, and growth was automatically monitored every 10 minutes as OD650 nm.
The relative growth yield and growth rate for each supplement was then averaged over the three independent repeats, and the standard deviation was calculated.

[1] = Bordetella pertussis, 168 h, read-out: Relative yield Average, 2 mM in medium, max OD650 nm relative to water controls
[2] = Bordetella pertussis, 168 h, read-out: Relative yield Average, 20 mM in medium, max OD650 nm relative to water controls
[3] = Bordetella pertussis, read-out: Relative growth rate Average, 2 mM in medium, first generation, relative to water controls
[4] = Bordetella pertussis, read-out: Relative growth rate Average, 20 mM in medium, first generation, relative to water controls
[5] = 1 mM in medium, first generation, relative to water controls
[6] = 1 mM in medium, max OD650 nm relative to water controls
[7] = Bordetella pertussis, 168 h, read-out: Relative yield Average, 0.1 mg/L in medium, max OD650 nm relative to water controls
[8] = Bordetella pertussis, 168 h, read-out: Relative yield Average, 1 mg/L in medium, max OD650 nm relative to water controls
[9] = Bordetella pertussis, read-out: Relative growth rate Average, 0.1 mg/L in medium, first generation, relative to water controls
[10] = Bordetella pertussis, read-out: Relative growth rate Average, 1 mg/L in medium, first generation, relative to water controls

## N[C@@H](CS)C(=O)O [L-Cysteine]
Bordetella pertussis, 168 h, read-out: Relative yield Average, 0.25 mM in medium, max OD650 nm relative to water controls
  activity at 250 µM: 158%
[1]
  activity at 2000 µM: > 105%
Bordetella pertussis, 168 h, read-out: Relative yield Average, 2.5 mM in medium, max OD650 nm relative to water controls
  activity at 2500 µM: 212%
[2]
  activity at 20000 µM: > 105%
Bordetella pertussis, read-out: Relative growth rate Average, 0.25 mM in medium, first generation, relative to water controls
  activity at 250 µM: 155%
[3]
  activity at 2000 µM: > 105%
Bordetella pertussis, read-out: Relative growth rate Average, 2.5 mM in medium, first generation, relative to water controls
  activity at 2500 µM: 146%
[4]
  activity at 20000 µM: > 105%

## O=C(O)CCCC[C@@H]1SC[C@@H]2NC(=O)N[C@@H]21 [Biotin]
Bordetella pertussis, read-out: Relative growth rate Average, 0.02 mg/L in medium, first generation, relative to water controls
  activity at 0.02 µg/mL: > 105%
Bordetella pertussis, read-out: Relative growth rate Average, 0.2 mg/L in medium, first generation, relative to water controls
  activity at 0.2 µg/mL: 95 to 105%

## OCC(O)CO [Glycerol]
[1]
  activity at 2000 µM: 95 to 105%
[2]
  activity at 20000 µM: > 105%
[3]
  activity at 2000 µM: 95 to 105%
[4]
  activity at 20000 µM: < 95%

## O.O.O.O.O.O.[Cl-].[Cl-].[Mg+2] [MgCl2•6H2O]
[5]
  Relative growth rate Average: 99.38%
[6]
  Relative yield Average: 102.26%
10 mM in medium, first generation, relative to water controls
  Relative growth rate Average: 106.39%
10 mM in medium, max OD650 nm relative to water controls
  Relative yield Average: 222.99%

## N[C@@H](Cc1ccc(O)cc1)C(=O)O [L-Tyrosine]
Bordetella pertussis, 168 h, read-out: Relative yield Average, 0.0221 mM in medium, max OD650 nm relative to water controls
  activity at 22.1 µM: 95 to 105%
Bordetella pertussis, 168 h, read-out: Relative yield Average, 0.221 mM in medium, max OD650 nm relative to water controls
  activity at 221 µM: 95 to 105%
Bordetella pertussis, read-out: Relative growth rate Average, 0.0221 mM in medium, first generation, relative to water controls
  activity at 22.1 µM: 95 to 105%
Bordetella pertussis, read-out: Relative growth rate Average, 0.221 mM in medium, first generation, relative to water controls
  activity at 221 µM: < 95%

## Cl.N [NH4Cl]
[5]
  Relative growth rate Average: 98.56%
[6]
  Relative yield Average: 104.80%

## Cl.NCCCC[C@H](N)C(=O)O [L-Lysine HCl]
[1]
  activity at 2000 µM: > 105%
[3]
  activity at 2000 µM: < 95%

## O.O.[Na+].[Na+].[O]=[Mo](=[O])([O-])[O-] [Na2MoO4•2H2O]
0.94 mg/L in medium, first generation, relative to water controls
  Relative growth rate Average: 86.76%
0.94 mg/L in medium, max OD650 nm relative to water controls
  Relative yield Average: 101.96%
9.4 mg/L in medium, first generation, relative to water controls
  Relative growth rate Average: 91.79%
9.4 mg/L in medium, max OD650 nm relative to water controls
  Relative yield Average: 105.65%

## OC[C@H]1O[C@@](CO)(O[C@H]2O[C@H](CO)[C@@H](O)[C@H](O)[C@H]2O)[C@@H](O)[C@@H]1O [Sucrose]
Bordetella pertussis, 168 h, read-out: Relative yield Average, 6 g/L in medium, max OD650 nm relative to water controls
  activity at 6000 µg/mL: > 105%
Bordetella pertussis, read-out: Relative growth rate Average, 6 g/L in medium, first generation, relative to water controls
  activity at 6000 µg/mL: 95 to 105%

## Nc1ncnc2nc[nH]c12 [Adenine]
[7]
  activity at 0.1 µg/mL: 95 to 105%
[8]
  activity at 1 µg/mL: 95 to 105%
[9]
  activity at 0.1 µg/mL: 95 to 105%
[10]
  activity at 1 µg/mL: 95 to 105%

## N=C(N)NCCC[C@H](N)C(=O)O [L-Arginine]
[1]
  activity at 2000 µM: > 105%
[3]
  activity at 2000 µM: > 105%
[4]
  activity at 20000 µM: > 105%
No concentration stated
  Effect on growth rate in comparison to a minimally identified medium: positive effect

## O=C([O-])/C=C/C(=O)[O-].[Na+].[Na+] [Disodium Fumarate]
2 mM in medium, first generation, relative to water controls
  Relative growth rate Average: 97.72%
2 mM in medium, max OD650 nm relative to water controls
  Relative yield Average: 107.14%
20 mM in medium, first generation, relative to water controls
  Relative growth rate Average: 86.72%
20 mM in medium, max OD650 nm relative to water controls
  Relative yield Average: 171.26%

## O.O.O.O.O.O.O.O=S(=O)([O-])[O-].[Zn+2] [ZnSO4•7H2O]
1.89 mg/L in medium, first generation, relative to water controls
  Relative growth rate Average: 91.58%
1.89 mg/L in medium, max OD650 nm relative to water controls
  Relative yield Average: 191.76%
18.9 mg/L in medium, first generation, relative to water controls
  Relative growth rate Average: 99.13%
18.9 mg/L in medium, max OD650 nm relative to water controls
  Relative yield Average: 163.55%

## NC(=O)C[C@H](N)C(=O)O [L-Asparagine]
Bordetella pertussis, 168 h, read-out: Relative yield Average, 1.33 mM in medium, max OD650 nm relative to water controls
  activity at 1330 µM: 95 to 105%
Bordetella pertussis, 168 h, read-out: Relative yield Average, 13.3 mM in medium, max OD650 nm relative to water controls
  activity at 13300 µM: < 95%
Bordetella pertussis, read-out: Relative growth rate Average, 1.33 mM in medium, first generation, relative to water controls
  activity at 1330 µM: 95 to 105%
Bordetella pertussis, read-out: Relative growth rate Average, 13.3 mM in medium, first generation, relative to water controls
  activity at 13300 µM: 95 to 105%

## C[C@H](O)C(=O)[O-].[Na+] [Sodium L-Lactate]
5 mM in medium, first generation, relative to water controls
  Relative growth rate Average: 128.73%
5 mM in medium, max OD650 nm relative to water controls
  Relative yield Average: 100.70%
50 mM in medium, first generation, relative to water controls
  Relative growth rate Average: 103.33%
50 mM in medium, max OD650 nm relative to water controls
  Relative yield Average: 192.99%

## O=C(O)CC(O)(CC(=O)O)C(=O)O [Citric acid monohydrate]
[1]
  activity at 2000 µM: < 95%

## CSCC[C@H](N)C(=O)O [L-Methionine]
[2]
  activity at 20000 µM: > 105%
[3]
  activity at 2000 µM: > 105%
[4]
  activity at 20000 µM: > 105%

## N[C@@H](Cc1c[nH]cn1)C(=O)O [L-Histidine]
[1]
  activity at 2000 µM: 95 to 105%
[2]
  activity at 20000 µM: < 95%
[3]
  activity at 2000 µM: > 105%
[4]
  activity at 20000 µM: > 105%

## N[C@@H](Cc1c[nH]c2ccccc12)C(=O)O [L-Tryptophane]
Bordetella pertussis, 168 h, read-out: Relative yield Average, 0.518 mM in medium, max OD650 nm relative to water controls
  activity at 518 µM: > 105%
Bordetella pertussis, 168 h, read-out: Relative yield Average, 5.18 mM in medium, max OD650 nm relative to water controls
  activity at 5180 µM: 95 to 105%
Bordetella pertussis, read-out: Relative growth rate Average, 0.518 mM in medium, first generation, relative to water controls
  activity at 518 µM: 95 to 105%

## O=c1cc[nH]c(=O)[nH]1 [Uracil]
[7]
  activity at 0.1 µg/mL: 95 to 105%
[8]
  activity at 1 µg/mL: 101%
[9]
  activity at 0.1 µg/mL: 95 to 105%
[10]
  activity at 1 µg/mL: 94.8%

## O.O.O.O.O.O.[Cl-].[Cl-].[Co+2] [CoCl2•6H2O]
0.42 mg/L in medium, first generation, relative to water controls
  Relative growth rate Average: 93.44%
0.42 mg/L in medium, max OD650 nm relative to water controls
  Relative yield Average: 103.04%
4.2 mg/L in medium, first generation, relative to water controls
  Relative growth rate Average: 46.12%
4.2 mg/L in medium, max OD650 nm relative to water controls
  Relative yield Average: 149.59%

## N[C@@H](CO)C(=O)O [L-Serine]
[1]
  activity at 2000 µM: < 95%
[2]
  activity at 20000 µM: < 95%
[3]
  activity at 2000 µM: 95 to 105%

— US20160378909A1, “PROCESS FOR IDENTIFYING CULTURE CONDITIONS FOR A CELL OR ORGANISM” (GLAXOSMITHKLINE BIOLOGICALS SA, priority 2013, published 2016)
